Reference: ChEMBL document CHEMBL1909046, “DrugMatrix in vitro pharmacology data”

Legend:
[1] = DRUGMATRIX: Tumor Necrosis Factor (TNF), Non-Selective radioligand binding (ligand: [125I] TNF-alpha); assay type: cell membranes, Membrane; conditions: u-937; Not Active = under 50% inhibition at 10 µM
Histamine H2 receptor = Histamine H2 receptor (Homo sapiens, UniProt P25021); assay type: cell membranes, CHO-K1, Membrane; conditions: cho-k1; note: in other assays of this panel Not Active means under 50% inhibition at 10 µM
[2] = biological target: Mitogen-activated protein kinase 3 (Homo sapiens, UniProt P27361); assay: DRUGMATRIX: Protein Serine/Threonine Kinase, ERK1 enzyme inhibition (substrate: Myelin Basic Protein); design: species or system Escherichia coli; conditions: Not Active = under 50% inhibition at 10 µM
[3] = biological target: Epidermal growth factor receptor (Homo sapiens, UniProt P00533); assay: DRUGMATRIX: Protein Tyrosine Kinase, EGF Receptor enzyme inhibition (substrate: Poly(Glu:Tyr)); assay type: cell-based, Insect cells; conditions: insect cells; Not Active = under 50% inhibition at 10 µM
[4] = biological target: 5-hydroxytryptamine receptor 1B (Rattus norvegicus, UniProt P28564); assay type: cell membranes, Wistar, Cerebral cortex, Membrane; note: in other assays of this panel Not Active means under 50% inhibition at 10 µM
Cytochrome P450 3A4 = Cytochrome P450 3A4 (Homo sapiens, UniProt P08684); conditions: bti-tn-5b1-4; note: in other assays of this panel Not Active means under 50% inhibition at 10 µM
Cytochrome P450 3A4, sequence (P08684 whole entry): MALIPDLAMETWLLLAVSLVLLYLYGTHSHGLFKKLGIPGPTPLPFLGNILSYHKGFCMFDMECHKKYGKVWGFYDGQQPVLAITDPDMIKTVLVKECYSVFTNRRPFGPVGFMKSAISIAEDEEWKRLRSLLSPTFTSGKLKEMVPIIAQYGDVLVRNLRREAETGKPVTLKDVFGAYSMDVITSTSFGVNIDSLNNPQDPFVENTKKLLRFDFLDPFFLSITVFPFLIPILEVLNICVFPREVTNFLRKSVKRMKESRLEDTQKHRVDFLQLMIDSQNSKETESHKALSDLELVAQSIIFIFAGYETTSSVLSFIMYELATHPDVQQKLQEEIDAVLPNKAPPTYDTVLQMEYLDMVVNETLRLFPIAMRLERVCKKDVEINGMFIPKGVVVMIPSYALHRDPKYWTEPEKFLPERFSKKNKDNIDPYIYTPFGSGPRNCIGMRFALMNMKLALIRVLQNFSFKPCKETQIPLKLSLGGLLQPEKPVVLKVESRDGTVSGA

Histamine H2 receptor, sequence (P25021 whole entry): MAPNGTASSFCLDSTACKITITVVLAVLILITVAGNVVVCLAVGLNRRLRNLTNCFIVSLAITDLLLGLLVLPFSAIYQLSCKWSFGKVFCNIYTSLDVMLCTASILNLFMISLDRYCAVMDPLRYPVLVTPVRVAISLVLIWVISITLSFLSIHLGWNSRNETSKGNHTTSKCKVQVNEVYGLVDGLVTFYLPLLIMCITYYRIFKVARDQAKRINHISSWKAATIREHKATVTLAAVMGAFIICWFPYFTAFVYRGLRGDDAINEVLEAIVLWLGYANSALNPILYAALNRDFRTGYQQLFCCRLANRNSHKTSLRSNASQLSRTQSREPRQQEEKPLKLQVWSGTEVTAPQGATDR
5-hydroxytryptamine receptor 1B, sequence (P28564 whole entry): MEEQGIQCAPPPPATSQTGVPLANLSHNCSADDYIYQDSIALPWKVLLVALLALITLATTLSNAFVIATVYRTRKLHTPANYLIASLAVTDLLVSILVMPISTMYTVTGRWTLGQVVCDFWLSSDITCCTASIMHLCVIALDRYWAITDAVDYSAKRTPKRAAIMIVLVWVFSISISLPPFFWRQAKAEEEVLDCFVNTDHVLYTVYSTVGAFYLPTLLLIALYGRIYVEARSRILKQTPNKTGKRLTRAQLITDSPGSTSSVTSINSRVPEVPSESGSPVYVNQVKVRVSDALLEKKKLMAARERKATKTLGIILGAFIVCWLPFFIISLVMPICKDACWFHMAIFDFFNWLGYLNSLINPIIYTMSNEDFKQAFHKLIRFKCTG
Mitogen-activated protein kinase 3, sequence (P27361 whole entry): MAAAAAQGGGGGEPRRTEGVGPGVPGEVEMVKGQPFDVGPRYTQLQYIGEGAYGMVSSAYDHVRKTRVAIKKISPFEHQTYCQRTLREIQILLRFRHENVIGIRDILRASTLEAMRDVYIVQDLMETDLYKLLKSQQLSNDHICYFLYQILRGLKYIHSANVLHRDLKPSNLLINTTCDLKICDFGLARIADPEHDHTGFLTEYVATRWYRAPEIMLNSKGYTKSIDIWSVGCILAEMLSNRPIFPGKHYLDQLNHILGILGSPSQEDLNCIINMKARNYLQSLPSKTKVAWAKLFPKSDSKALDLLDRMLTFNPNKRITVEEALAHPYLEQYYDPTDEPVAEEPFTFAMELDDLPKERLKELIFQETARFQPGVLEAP
Epidermal growth factor receptor, sequence (P00533 whole entry): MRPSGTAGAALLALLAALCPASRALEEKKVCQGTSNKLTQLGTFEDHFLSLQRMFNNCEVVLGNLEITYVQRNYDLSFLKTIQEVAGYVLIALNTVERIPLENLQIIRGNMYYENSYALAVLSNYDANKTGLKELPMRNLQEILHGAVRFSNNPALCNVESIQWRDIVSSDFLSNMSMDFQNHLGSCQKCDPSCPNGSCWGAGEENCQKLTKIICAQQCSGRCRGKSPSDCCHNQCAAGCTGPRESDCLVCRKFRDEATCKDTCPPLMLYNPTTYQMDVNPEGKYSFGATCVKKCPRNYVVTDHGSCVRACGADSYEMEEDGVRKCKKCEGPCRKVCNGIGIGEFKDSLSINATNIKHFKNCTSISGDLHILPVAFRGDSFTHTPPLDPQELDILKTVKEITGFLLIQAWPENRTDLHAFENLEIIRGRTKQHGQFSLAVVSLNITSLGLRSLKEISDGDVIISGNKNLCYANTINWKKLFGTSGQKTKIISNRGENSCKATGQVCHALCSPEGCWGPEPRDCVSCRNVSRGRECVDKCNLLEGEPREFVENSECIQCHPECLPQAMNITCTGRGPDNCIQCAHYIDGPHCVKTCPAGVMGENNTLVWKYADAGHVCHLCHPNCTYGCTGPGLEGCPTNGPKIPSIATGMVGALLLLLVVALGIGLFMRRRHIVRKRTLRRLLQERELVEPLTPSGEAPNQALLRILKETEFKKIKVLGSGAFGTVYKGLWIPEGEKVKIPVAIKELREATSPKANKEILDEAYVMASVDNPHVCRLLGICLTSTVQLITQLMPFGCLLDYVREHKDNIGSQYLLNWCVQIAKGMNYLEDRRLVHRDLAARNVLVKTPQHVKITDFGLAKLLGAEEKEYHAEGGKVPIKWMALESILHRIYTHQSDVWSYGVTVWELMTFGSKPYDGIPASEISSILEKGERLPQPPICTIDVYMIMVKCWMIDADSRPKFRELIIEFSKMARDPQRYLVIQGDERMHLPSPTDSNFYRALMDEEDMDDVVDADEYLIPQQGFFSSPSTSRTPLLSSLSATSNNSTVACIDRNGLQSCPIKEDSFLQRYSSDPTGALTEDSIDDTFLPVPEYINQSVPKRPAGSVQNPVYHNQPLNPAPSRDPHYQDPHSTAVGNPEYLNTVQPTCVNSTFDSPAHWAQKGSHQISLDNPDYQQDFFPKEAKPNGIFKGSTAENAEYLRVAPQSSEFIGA

Compound | IC50 [1] | Ki [1] | IC50 (Histamine H2 receptor) | IC50 [2] | IC50 [3] | IC50 ([4]; read-out: IC50) [nM] | Ki ([4]; read-out: Ki) [nM] | IC50 (Cytochrome P450 3A4) | Ki (Cytochrome P450 3A4) | IC50 [4]
CO[C@@H]1[C@@H](OC)[C@H](C)[C@@](O)(CC(=O)O)O[C@H]1[C@H](C)[C@H]1O[C@@]2(CC[C@@](C)([C@H]3CC[C@@](C)([C@@H]4O[C@@H]([C@H]5O[C@](C)(O)[C@H](C)C[C@@H]5C)C[C@@H]4O[C@@H]4C[C@H](OC)[C@@H](OC)[C@H](C)O4)O3)O2)C[C@H](O)[C@H]1C [MADURAMICIN ACID] | Not Active | Not Active | Not Active | Not Active | Not Active | 2.98 | 1.35 | Not Active | Not Active | –
CC(C)Cc1ccc([C@@H](C)C(=O)O)cc1 [(R)-IBUPROPHEN] | Not Active | Not Active | Not Active | Not Active | Not Active | – | – | Not Active | Not Active | Not Active
NC(=O)N1C(=O)/C(=C(\O)c2cccs2)c2cc(Cl)ccc21 [TENIDAP] | Not Active | Not Active | Not Active | Not Active | Not Active | – | – | Not Active | Not Active | Not Active
O=C1C(CC[S+]([O-])c2ccccc2)C(=O)N(c2ccccc2)N1c1ccccc1 (stereo not given) [SULFINPYRAZONE] | Not Active | Not Active | Not Active | Not Active | Not Active | – | – | Not Active | Not Active | Not Active
Cn1c(=O)c2nc[nH]c2n(C)c1=O.O [THEOPHYLLINE] | Not Active | Not Active | Not Active | Not Active | Not Active | – | – | Not Active | Not Active | Not Active
CCCCOc1cc(CC2CNC(=O)N2)ccc1OC (stereo not given) [RO-201724] | Not Active | Not Active | Not Active | Not Active | Not Active | – | – | Not Active | Not Active | Not Active
N#Cc1ccc(C(c2ccc(C#N)cc2)n2cncn2)cc1 [LETROZOLE] | Not Active | Not Active | Not Active | Not Active | Not Active | – | – | Not Active | Not Active | Not Active
O=C1Nc2ccc(Cl)cc2C(c2ccccc2Cl)=NC1O (stereo not given) [LORAZEPAM] | Not Active | Not Active | Not Active | Not Active | Not Active | – | – | Not Active | Not Active | Not Active
